Measurements: the PolyMetriX glass transition set
± gives the standard deviation of the reports.

First: *CC(*)OC(=O)c1cccc(Cl)c1 (repeat unit)
Second: *CCNC(=O)c1ccc(O*)cc1 (repeat unit)
The glass transition temperature of the first is lower: 61.8 °C for the first, 150.00 °C for the second.

First: *CC(*)C(=O)OCCCCCCCCCCCn1c2ccccc2c2ccccc21 (repeat unit)
Second: */C=C/c1ccc2c3ccc(*)cc3n(-c3ccc(OCCCCCCCCCC)c(OCCCCCCCCCC)c3)c2c1 (repeat unit)
The glass transition temperature of the first is lower: 15.00 °C for the first, 95.00 °C for the second.

Compared with `*Oc1ccc(Oc2ccc(C(=O)c3ccc(*)cc3)cc2)cc1C` (repeat unit), `*Oc1ccc(Oc2ccc(C(=O)c3ccc(-c4ccc(C(=O)c5ccc(*)cc5)cc4)cc3)cc2)cc1-c1ccccc1` (repeat unit) is higher in glass transition temperature: 151.00 °C for the first, 186.00 °C for the second.

First: *c1ccc(Oc2ccc(-c3cnc4cc(-c5ccc6nc(*)cnc6c5)ccc4n3)cc2)cc1 (repeat unit)
Second: *c1ccc(Oc2ccc(Oc3ccc(P(=O)(c4ccccc4)c4ccc(Oc5ccc(Oc6ccc(-c7nc8ccc(-c9ccc%10nc(*)oc%10c9)cc8o7)cc6)cc5)cc4)cc3)cc2)cc1 (repeat unit)
The glass transition temperature of the first is higher: 334.00 °C for the first, 223.00 °C for the second.

Going from `*c1ccc(Nc2ccc(C3(c4ccc(Nc5ccc(S(*)(=O)=O)cc5)cc4)c4ccccc4-c4ccccc43)cc2)cc1` (repeat unit) to `*c1ccc(Nc2ccc(C3(c4ccc(Nc5ccc(S(*)(=O)=O)cc5)c(C)c4)c4ccccc4-c4ccccc43)cc2C)cc1` (repeat unit), the glass transition temperature rises from 221.00 °C to 269.00 °C.

Going from `*CCOCCOC(=O)CCCCCCCCC(=O)O*` (repeat unit) to `*CCCCCCCCCCOC(=O)CCCCCCCCC(=O)O*` (repeat unit), the glass transition temperature rises from -74.50 °C to -54.00 °C.

Compared with `*c1nc(-c2ccccc2)nc(N(C)CCCCCCN(*)C)n1` (repeat unit), `*CC(*)c1cc(C(=O)OC)ccc1-c1ccc(OCCCCCCCC)cc1` (repeat unit) is higher in glass transition temperature: 57.00 °C for the first, 126.00 °C for the second.

First: *c1ccc2c(c1)C(=O)N(c1cccc(C(=O)Nc3ccc(C(c4ccc(NC(=O)c5cccc(N6C(=O)c7ccc(C(*)(C(F)(F)F)C(F)(F)F)cc7C6=O)c5)cc4)(C(F)(F)F)C(F)(F)F)cc3)c1)C2=O (repeat unit)
Second: *C(=O)Nc1ccc(Oc2ccc(C(c3ccc(Oc4ccc(NC(=O)c5ccc6c(c5)C(=O)N(c5ccc(Oc7cccc8c(Oc9ccc(N%10C(=O)c%11ccc(*)cc%11C%10=O)cc9)cccc78)cc5)C6=O)cc4)cc3)(C(F)(F)F)C(F)(F)F)cc2)cc1 (repeat unit)
The glass transition temperature of the first is higher: 273.50 °C for the first, 231.00 °C for the second.

Compared with `*CCCCCCCCCCOc1ccc(/C=C/c2ccc(OCCCCCCCCCCOP(=O)(O*)OCCCCCCCCCCOc3ccc(/N=N/c4ccccc4)cc3)cc2)cc1` (repeat unit), `*c1ccc(C(=O)OCCCCCCCCCCOc2ccc(/C=C3\CCCC/C(=C\c4ccc(OCCCCCCCCCCOC(=O)c5ccc(-c6nnc(*)o6)cc5)cc4)C3=O)cc2)cc1` (repeat unit) is higher in glass transition temperature: 55.00 °C for the first, 74.00 °C for the second.

First: *CCCCCNC(=O)C(OC)C(OC)C(=O)N* (repeat unit)
Second: *CCC(C)(C)CC(C)CNC(=O)CCCCC(=O)N* (repeat unit)
The glass transition temperature of the first is higher: 113.00 °C for the first, 65.00 °C for the second.

First: *c1ccc(NC(=O)c2cc(NC(=O)c3ccc(NC(=O)C(C)N4C(=O)c5ccccc5C4=O)cc3)cc(C(=O)Nc3ccc(S(*)(=O)=O)cc3)c2)cc1 (repeat unit)
Second: *Oc1c(C)c(C)c(Oc2ccc(NC(=O)c3ccc(C(=O)Nc4ccc(*)cc4)cc3)cc2)c(C)c1C (repeat unit)
The glass transition temperature of the first is lower: 208.00 °C for the first, 310.00 °C for the second.

Going from `*C(=O)c1ccc2c(c1)C(=O)N(c1cc(-c3nc4ccccc4[nH]3)cc(N3C(=O)c4ccc(*)cc4C3=O)c1)C2=O` (repeat unit) to `*C(=O)c1ccc2c(c1)C(=O)N(c1ccc(Cc3ccc(N4C(=O)c5ccc(*)cc5C4=O)cc3)cc1)C2=O` (repeat unit), the glass transition temperature rises from 197.00 °C to 292.50 ± 9.3 °C.

First: *CC(*)C(=O)OC12CC3CC(C)(CC(C)(C3)C1)C2 (repeat unit)
Second: *CC(*)C(=O)[O][Na] (repeat unit)
The glass transition temperature of the first is lower: 104.00 °C for the first, 114.40 °C for the second.

Going from `*C/C=C/C(CC)S(*)(=O)=O` (repeat unit) to `*C/C=C/C[Si](*)(C)c1ccccc1` (repeat unit), the glass transition temperature falls from 70.10 °C to -1.00 °C.

Going from `*c1ccc(Oc2ccc(N3C(=O)c4ccc(-c5ccc6c(c5)C(=O)N(*)C6=O)cc4C3=O)cc2Br)c(Br)c1` (repeat unit) to `*C(=O)c1ccc2c(c1)C(=O)N(c1ccccc1C(=O)c1ccccc1N1C(=O)c3ccc(*)cc3C1=O)C2=O` (repeat unit), the glass transition temperature rises from 275.00 °C to 289.00 °C.

First: *CC(*)(C)C(N)=O (repeat unit)
Second: *CC(*)(C)C(=O)Oc1ccc(C)cc1C (repeat unit)
The glass transition temperature of the first is lower: 88.70 °C for the first, 109.00 °C for the second.

Going from `*CCCCCCOC(=O)c1cc(OCCCCCCOc2ccc(/N=N/c3ccc(C#N)cc3)cc2)cc(C(=O)OCCCCCCn2c(=O)c3cc4c(=O)n(*)c(=O)c4cc3c2=O)c1` (repeat unit) to `*CCCCCCCCCCNC(=O)CCCCCCCCCCC(=O)N*` (repeat unit), the glass transition temperature rises from 46.00 °C to 49.00 °C.

First: *Cc1cccc(CNC(=O)c2cccc(C(=O)N*)c2)c1 (repeat unit)
Second: *CC(C)CCC(C)CNC(=O)c1cc(C(=O)N*)cc(C(C)(C)C)c1 (repeat unit)
The glass transition temperature of the first is higher: 172.00 °C for the first, 149.00 °C for the second.

Compared with `*Oc1ccc(NC(=C(C#N)C#N)c2ccc3cc(C(Nc4ccc(*)cc4)=C(C#N)C#N)ccc3c2)cc1` (repeat unit), `*Oc1ccc(C2(c3ccc(OC(=O)c4ccc(C(*)=O)cc4)cc3)CCC(C(C)(C)C)CC2)cc1` (repeat unit) is lower in glass transition temperature: 280.00 °C for the first, 210.00 °C for the second.

First: *Oc1ccc(C(=O)Nc2ccc(C(c3ccc(NC(=O)c4ccc(*)cc4)cc3)(P3(=O)Oc4ccccc4-c4ccccc43)P3(=O)Oc4ccccc4-c4ccccc43)cc2)cc1 (repeat unit)
Second: *c1ccc(Oc2ccc(S(=O)(=O)c3ccc(Oc4ccc(-c5c6c(c(*)c7ccccc57)C(=O)N(c5ccccc5C(F)(F)F)C6=O)cc4)cc3)cc2)cc1 (repeat unit)
The glass transition temperature of the first is lower: 243.00 °C for the first, 290.00 °C for the second.

First: *CC(F)(F)C(F)(F)C(F)(F)C(F)(F)COC(=O)NCC(F)(F)C(F)(F)C(F)(F)C(F)(F)CNC(=O)O* (repeat unit)
Second: *CC(*)C(=O)OCC(F)(F)C(F)C(F)(F)F (repeat unit)
The glass transition temperature of the first is higher: 20.00 °C for the first, -22.00 °C for the second.

Compared with `*CCCCCCCCCCCC(=O)N*` (repeat unit) [Poly(dodecano-12-lactam)], `*Oc1ccc(C(C)(C)c2ccc(OC(=O)c3ccc(CC(*)=O)cc3)cc2)cc1` (repeat unit) is higher in glass transition temperature: 38.4 ± 3.2 °C for the first, 85.00 °C for the second.

Compared with `*O[Si](C)(C)O[Si](C)(C)c1c(F)c(F)c(F)c([Si](*)(C)C)c1F` (repeat unit), `*c1cc(/N=N/c2ccc(OC)cc2)cc(*)c1O` (repeat unit) is higher in glass transition temperature: -61.00 °C for the first, 134.00 °C for the second.

Work on `*c1cc(-c2ccc(C(=C3C=C(C(C)(C)C)C(=O)C(C(C)(C)C)=C3)c3cc(C(C)(C)C)c(OC(C)=O)c(C(C)(C)C)c3)cc2)c(*)s1` (repeat unit) yielded a glass transition temperature of -4.30 °C.
